Molecular target: T1, human 11β-HSD1 (Homo sapiens, UniProt P28845)
T1 construct: host or cells: microsome fraction
Test: Enzymatic 11beta-HSD1 test (SPA-based detection)
Format: biochemical
Conditions: human 11β-HSD1 microsome fraction, [1,2-3H]-cortisone, NADPH, 37° C. 1 hour
Outline: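 Scintillation proximity detection: anti-cortisol antibody on SPA-PVT beads captured tritiated cortisol. The stop mix also contained 0.01 mM SSR110887 and was equilibrated 1 h at room temperature before counting. Cortisol came from [1,2-3H]-cortisone ([…]), turned over by human 11β-HSD1 microsomal protein (0.2 µg) with 0.25 mM NADPH in HEPES buffer, 37 °C, 1 h.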

T1 sequence (P28845 whole entry): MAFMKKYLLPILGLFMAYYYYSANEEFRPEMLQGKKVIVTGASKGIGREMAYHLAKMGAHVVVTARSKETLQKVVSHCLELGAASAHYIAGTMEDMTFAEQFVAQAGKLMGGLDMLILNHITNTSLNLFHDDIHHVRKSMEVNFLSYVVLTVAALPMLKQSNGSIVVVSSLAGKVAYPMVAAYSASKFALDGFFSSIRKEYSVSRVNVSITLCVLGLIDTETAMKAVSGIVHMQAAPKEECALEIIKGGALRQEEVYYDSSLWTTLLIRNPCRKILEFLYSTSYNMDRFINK

| Compound | IC50 [nM] |
| --- | --- |
| C[C@H](NC1=NS(=O)(=O)C(c2ccc(-c3cccc(C(N)=O)c3)nc2)C(C)(C)O1)c1ccccc1F (stereo partly drawn) [Example 176, 3-(5-{2-[(S)-1-(2-fluor-phenyl)-ethylamino]-6,6-odimethyl-4,4-dioxo-5,6-dihydro-4H-4lambda6-[1,4,3]oxathiazin-5-yl}-pyridin-2-yl)-benzamide] | 6 |
| CC1(C)OC(N[C@@H](CCO)c2ccc(Cl)cc2)=NS(=O)(=O)C1c1ccc(-c2ccccc2)cc1 (stereo partly drawn) [Example 88, (S)-3-(5-Biphenyl-4-yl-6,6-dimethyl-4,4-dioxo-5,6-dihydro-4H-4lambda6-[1,4,3]oxathiazin-2-ylamino)-3-(4-chloro-phenyl)-propan-1-ol] | 198 |
| C[C@H](NC1=NS(=O)(=O)C(C)(c2ccc(C(C)(C)C)cc2)C(C)(C)O1)c1ccccc1F (stereo partly drawn) [Compound 63, [5-(4-tert-Butylphenyl)-5,6,6-trimethyl-4,4-dioxo-5,6-dihydro-4H-4lambda6-[1,4,3]oxathiazin-2-yl]-[(S)-1-(2-fluorophenyl)ethyl]amine] | 32 |
| COc1cccc(C2C(C)(C)OC(N[C@@H](CCO)c3ccccc3)=NS2(=O)=O)c1 (stereo partly drawn) [Example 37, (S)-3-[5-(3-Methoxy-phenyl)-6,6-dimethyl-4,4-dioxo-5,6-dihydro-4H-4lambda6-[1,4,3]oxathiazin-2-ylamino]-3-phenyl-propan-1-ol] | 13 |
| CN(C)c1cccc(-c2ccc(C3C(C)(C)OC(N[C@@H](CCO)c4ccccc4F)=NS3(=O)=O)cc2)n1 (stereo partly drawn) [Example 126, (S)-3-{5-[4-(6-Dimethylamino-pyridin-2-yl)-phenyl]-6,6-dimethyl-4,4-dioxo-5,6-dihydro-4H-4lambda6-[1,4,3]oxathiazin-2-ylamino}-3-(2-fluorophenyl)-propan-1-ol] | 19 |
| CC1(C)OC(N[C@@H](CCO)c2ccccc2F)=NS(=O)(=O)C1(C)c1ccc(-c2ccccc2)cc1 (stereo partly drawn) [Example 53, (S)-3-(5-Biphenyl-4-yl-5,6,6-trimethyl-4,4-dioxo-5,6-dihydro-4H-4lambda6-[1,4,3]oxathiazin-2-ylamino)-3-(2-fluorophenyl)-propan-1-ol] | 8 |
| CC1(C)OC(NC2CCCCC2)=NS(=O)(=O)C1(C)c1ccccc1 (stereo not drawn) [Example 18, Cyclohexyl-(5,6,6-trimethyl-4,4-dioxo-5-phenyl-5,6-dihydro-4H-4lambda6-[1,4,3]oxathiazin-2-yl)-amine] | 36 |
| C[C@H](NC1=NS(=O)(=O)C(c2cccc(C3CCN(C)CC3)c2)C(C)(C)O1)c1ccccc1F (stereo partly drawn) [Example 179, {6,6-Dimethyl-5-[3-(1-methyl-piperidin-4-yl)-phenyl]-4,4-dioxo-5,6-dihydro-4H-4lambda6-[1,4,3]oxathiazin-2-yl}-[(S)-1-(2-fluorophenyl)-ethyl]-amine] | 34 |
| CC1(C)OC(N[C@@H](CCO)c2ccccc2F)=NS(=O)(=O)[C@@H]1c1ccc(-c2ccnc(C(N)=O)c2)cc1 [Example 189, 4-(4-{(R)-2-[(S)-1-(2-fluorophenyl)-3-hydroxy-propylamino]-6,6-dimethyl-4,4-dioxo-5,6-dihydro-4H-4lambda6-[1,4,3]oxathiazin-5-yl}-phenyl)-pyridine-2-carboxamide] | 5 |
| C[C@H](NC1=NS(=O)(=O)C(c2cccc(Br)c2)C(C)(C)O1)c1ccccc1F (stereo partly drawn) [Example 27, [5-(3-Bromophenyl)-6,6-dimethyl-4,4-dioxo-5,6-dihydro-4H-4lambda6-[1,4,3]oxathiazin-2-yl]-[(S)-1-(2-fluorophenyl)-ethyl]-amine] | 13 |
| C[C@H](NC1=NS(=O)(=O)C(C)(c2cccc(Br)c2)C(C)(C)O1)c1ccccc1F (stereo partly drawn) [Example 30, [5-(3-Bromophenyl)-5,6,6-trimethyl-4,4-dioxo-5,6-dihydro-4H-4lambda6-[1,4,3]oxathiazin-2-yl]-[(S)-1-(2-fluorophenyl)-ethyl]-amine] | 7 |
| CN1CCN(c2ccc(-c3ccc(C4C(C)(C)OC(N[C@@H](CCO)c5ccccc5F)=NS4(=O)=O)cc3)cn2)CC1 (stereo partly drawn) [Example 145, (S)-3-(6,6-Dimethyl-5-{4-[6-(4-methyl-piperazin-1-yl)-pyridin-3-yl]-phenyl}-4,4-dioxo-5,6-dihydro-4H-4lambda6-[1,4,3]oxathiazin-2-ylamino)-3-(2-fluoro-phenyl)-propan-1-ol] | 5 |
| CC1(C)OC(N[C@@H](CCO)c2ccccc2)=NS(=O)(=O)C1c1cccc(-c2cncnc2)c1 (stereo partly drawn) [Example 14, (S)-3-[6,6-Dimethyl-4,4-dioxo-5-(3-pyrimidin-5-yl-phenyl)-5,6-dihydro-4H-4lambda6-[1,4,3]oxathiazin-2-ylamino]-3-phenyl-propan-1-ol] | 32 |
| CC(C)(O)c1ccc(C2C(C)(C)OC(N[C@@H](CCO)c3ccccc3F)=NS2(=O)=O)cc1 (stereo partly drawn) [Example 153, (S)-3-(2-fluorophenyl)-3-{5-[4-(1-hydroxy-1-methyl-ethyl)-phenyl]-6,6-dimethyl-4,4-dioxo-5,6-dihydro-4H-4lambda6-[1,4,3]oxathiazin-2-ylamino}-propan-1-ol] | 48 |
| CC1(C)OC(N[C@@H](CCO)c2ccccc2F)=NS(=O)(=O)C1c1ccc(-c2ccccn2)cc1 (stereo partly drawn) [Example 134, (S)-3-[6,6-Dimethyl-4,4-dioxo-5-(4-pyridin-2-yl-phenyl)-5,6-dihydro-4H-4lambda6-[1,4,3]oxathiazin-2-ylamino]-3-(2-fluorophenyl)-propan-1-ol] | 11 |
| Cc1ccccc1-c1ccc(C2C(C)(C)OC(N[C@@H](CCO)c3ccccc3F)=NS2(=O)=O)cc1 (stereo partly drawn) [Example 64, (S)-3-[6,6-Dimethyl-5-(2′-methyl-biphenyl-4-yl)-4,4-dioxo-5,6-dihydro-4H-4lambda6-[1,4,3]oxathiazin-2-ylamino]-3-(2-fluorophenyl)-propan-1-ol] | 12 |
| CN1CCN(c2ccc(-c3ccc(C4C(C)(C)OC(N[C@@H](CCO)c5ccccc5F)=NS4(=O)=O)cc3)nc2)CC1 (stereo partly drawn) [Example 154, (S)-3-(6,6-Dimethyl-5-{4-[5-(4-methyl-piperazin-1-yl)-pyridin-2-yl]-phenyl}-4,4-dioxo-5,6-dihydro-4H-4lambda6-[1,4,3]oxathiazin-2-ylamino)-3-(2-fluoro-phenyl)-propan-1-ol] | 13 |
| CC1(C)OC(N[C@@H](CCO)c2ccccc2F)=NS(=O)(=O)C1c1ccc(N2CCOCC2)cc1 (stereo partly drawn) [Example 107, (S)-3-[6,6-Dimethyl-5-(4-morpholin-4-yl-phenyl)-4,4-dioxo-5,6-dihydro-4H-4lambda6-[1,4,3]oxathiazin-2-ylamino]-3-(2-fluorophenyl)-propan-1-ol] | 33 |
| CC1(C)OC(N[C@@H](CCO)c2ccccc2)=NS(=O)(=O)C1(F)c1cccc(Br)c1 (stereo partly drawn) [Example 50, (S)-3-[5-(3-Bromophenyl)-5-fluoro-6,6-dimethyl-4,4-dioxo-5,6-dihydro-4H-4lambda6-[1,4,3]oxathiazin-2-ylamino]-3-phenyl-propan-1-ol] | 40 |
| CC1(C)OC(N[C@@H](CCO)c2ccccc2F)=NS(=O)(=O)C1(C)c1cccc(Br)c1 (stereo partly drawn) [Example 47, (S)-3-[5-(3-Bromophenyl)-5,6,6-trimethyl-4,4-dioxo-5,6-dihydro-4H-4lambda6-[1,4,3]oxathiazin-2-ylamino]-3-(2-fluorophenyl)-propan-1-ol] | 5 |
| C[C@H](NC1=NS(=O)(=O)C(c2ccc(-c3ccc4nc(N)sc4c3)cc2)C(C)(C)O1)c1ccccc1F (stereo partly drawn) [Example 195, 6-(4-{2-[(S)-1-(2-fluorophenyl)-ethylamino]-6,6-dimethyl-4,4-dioxo-5,6-dihydro-4H-4lambda6-[1,4,3]oxathiazin-5-yl}-phenyl)-benzothiazol-2-ylamine] | 40 |
